The source of these data is ChEMBL document CHEMBL5244272 (Eur J Med Chem, 2021).

For series [1], the system named is Plasmodium falciparum. Nature of the series: Antimalarial activity against Plasmodium falciparum FcB1 at 100 ng/ml. Format: functional.
For series [2], the system named is Plasmodium falciparum. Nature of the series: Antimalarial activity against Plasmodium falciparum FcB1 at 10 ng/ml. Format: functional.
In series [3] the test system is Plasmodium falciparum. Nature of the series: Antimalarial activity against Plasmodium falciparum FcB1 at 1 ng/ml. Format: functional.
For series [4], the system named is Plasmodium berghei. In words: Antimalarial activity against Plasmodium berghei infected in mouse assessed as increase in survival at 100 mg/kg, po. It is filed as functional.
Series [5] has as its system Plasmodium falciparum. Nature of the series: Antimalarial activity against chloroquine resistant Plasmodium falciparum. It is filed as functional, organism-based.
Series [6] has as its system Plasmodium vinckei. In words: Antimalarial activity against Plasmodium vinckei infected in ip dosed mouse. Format: functional.
The test system of series [7] is Plasmodium vinckei. Nature of the series: Antimalarial activity against Plasmodium vinckei infected in po dosed mouse. It is filed as functional.
The subject of series [8] is Plasmodium falciparum. In words: Antimalarial activity against Plasmodium falciparum IPC5202. It is filed as functional, organism-based.
Series [9] deals with Plasmodium falciparum. Nature of the series: Antimalarial activity against Plasmodium falciparum HB3. It is filed as functional, organism-based.
The test system of series [10] is Plasmodium falciparum. In words: Antimalarial activity against Plasmodium falciparum 3D7. It is filed as functional, organism-based.
In series [11] the test system is Plasmodium falciparum. Nature of the series: Antimalarial activity against Plasmodium falciparum SGE2. Format: functional, organism-based.
For series [12], the system named is Plasmodium falciparum. In words: Antimalarial activity against Plasmodium falciparum Dd2. It is filed as functional, organism-based.
Series [13] has as its system Plasmodium falciparum. Nature of the series: Antimalarial activity against ART-sensitive Plasmodium falciparum NF54. It is filed as functional, organism-based.
For series [14], the system named is Plasmodium falciparum. In words: Antimalarial activity against ART-sensitive Plasmodium falciparum W2. Format: functional, organism-based.
In series [15] the test system is Plasmodium berghei. In words: Antimalarial activity against Plasmodium berghei infected in mouse. It is filed as functional. To be noted: Plasmodium berghei.
Series [16] concerns Plasmodium falciparum. Nature of the series: Antimalarial activity against ART-resistant Plasmodium falciparum Dd2 harboring R539T mutant. It is filed as functional, organism-based.
Series [17] has as its system Plasmodium falciparum. Nature of the series: Antimalarial activity against ART-resistant Plasmodium falciparum NF54 harboring […] mutant. It is filed as functional, organism-based.
Series [18] has as its system Plasmodium falciparum. In words: Antimalarial activity against Plasmodium falciparum IV-V gametocytes. It is filed as functional, organism-based.
The subject of series [19] is Plasmodium falciparum. In words: Antimalarial activity against Plasmodium falciparum IPC4912. Format: functional, organism-based.
Series [20] concerns Plasmodium falciparum. In words: Antimalarial activity against Plasmodium falciparum W2. Format: functional, organism-based.
Series [21] concerns Plasmodium falciparum. Nature of the series: Antimalarial activity against Plasmodium falciparum D6. It is filed as functional, organism-based.
Series [22] deals with Plasmodium vinckei. In words: Antimalarial activity against Plasmodium vinckei infected in mouse assessed as reduction in parasitaemia at 50 mg/kg, po or […], ip measured on day 5. Format: functional. Details: scale not given: the % may be the effect or the level left.
The test system of series [23] is Plasmodium vinckei. Nature of the series: Antimalarial activity against Plasmodium vinckei infected in mouse assessed as reduction in parasitaemia at 25 mg/kg, po or 7.5 mg/kg, ip measured on day 5. It is filed as functional. Details: scale not given: the % may be the effect or the level left.
The subject of series [24] is Plasmodium falciparum. Nature of the series: Potency index, ratio of chloroquine IC50 to test compound IC50 for Plasmodium falciparum INDO. Format: functional.
The nature of series [25]: Cytotoxicity against HEK293 cells. Format: toxicity, cell-based. To be noted: human.
Series [26] has as its system Plasmodium falciparum. Nature of the series: Antimalarial activity against Plasmodium falciparum INDO. It is filed as functional, organism-based.
Series [27] has as its system Plasmodium falciparum. In words: Antimalarial activity against Plasmodium falciparum. Format: functional, organism-based.
For series [28], the system named is Plasmodium falciparum. In words: Antimalarial activity against Plasmodium falciparum K1. Format: functional, organism-based.
For series [29], the system named is Plasmodium falciparum. In words: Antimalarial activity against Plasmodium falciparum NF54. Format: functional, organism-based.
Series [30] is described as follows: Selectivity index, ratio of IC50 for HEK293 cells to IC50 for Plasmodium falciparum NF54. It is filed as toxicity. The conditions noted are these: human, read-out: Ratio IC50.
Series [31] can be described thus: Selectivity index, ratio of IC50 for human AB943 to IC50 for chloroquine resistant Plasmodium falciparum FcB1/Colombia.
Series [32] has as its system Plasmodium falciparum. In words: Antimalarial activity against chloroquine resistant Plasmodium falciparum FcB1/Colombia. It is filed as functional, organism-based.
Series [33] concerns Plasmodium berghei. In words: Antimalarial activity against Plasmodium berghei ANKA infected in mouse at 30 mg/kg, po. It is filed as functional.
For series [34], the system named is Plasmodium berghei. Nature of the series: Antimalarial activity against Plasmodium berghei ANKA infected in po dosed mouse. It is filed as functional. The conditions noted are these: Plasmodium berghei, ANKA.

Bounds are passed on as bounds.

Consider `C[C@@H]1CC[C@H]2[C@@H](C)C(=O)N(CCC(=O)N(CCO)CC(=O)NC(=O)c3ccccc3)[C@@H]3O[C@]4(C)CC[C@@H]1[C@@]23OO4`, for which the Activity in series [1] is 100%; in series [2], 99%; in series [3], 78%.

Turning to `C[C@H]1[C@@H](OCC(CO[C@H]2O[C@@H]3O[C@]4(C)CC[C@H]5[C@H](C)CC[C@@H]([C@H]2C)[C@@]35OO4)=NOC(=O)CCC(=O)O)O[C@@H]2O[C@]3(C)CC[C@H]4[C@H](C)CC[C@@H]1[C@@]24OO3`, the Activity in [4] amounted to 100%.

In the case of `COCCC[C@]12O[C@H]([C@@H]3OO[C@H]1O3)[C@H](C)C(=O)[C@@H]2C`, in series [5], the IC50 is reported as 2 microg/cm3.

In the case of `CC(CNCCO[C@H]1O[C@@H]2O[C@]3(C)CC[C@H]4[C@H](C)CC[C@@H]([C@H]1C)[C@@]24OO3)Nc1ccnc2cc(Cl)ccc12` (stereo partly drawn), the results for the ED50 in series [6] and in series [7] were 1.1 mg/kg and 12 mg/kg, respectively.

As for `C[C@H]1[C@@H](O)O[C@@H]2O[C@@]3(C)CC[C@H]4[C@H](C)CC[C@@H]1[C@@]24OO3` [ARTENIMOL], the IC50 worked out at 6.2 nM in [8]; 5 nM in [9]; 4.7 nM in series [10]; 9 nM in series [11]; 4.2 nM in series [12]; 1.5 nM in series [13]. Also, the IC50 in series [14] stood at 1 nM; in [16] it was 1.4 nM; in series [17], 1.1 nM; in series [18] it was 440 nM; in [19], 3.7 nM. The compound also showed an ED50 in series [15] of 1.15 mg/kg.

Regarding `C[C@H]1[C@@H](OCC(CO[C@H]2O[C@@H]3O[C@]4(C)CC[C@H]5[C@H](C)CC[C@@H]([C@H]2C)[C@@]35OO4)=NO)O[C@@H]2O[C@]3(C)CC[C@H]4[C@H](C)CC[C@@H]1[C@@]24OO3`, the IC50 in series [20] came to 9.9 nM; in [21], 13.8 nM. For the same compound, in series [4], the Activity is listed as 100%.

Consider `C[C@H]1[C@@H](OCCN2CC[N+](CCNc3ccnc4cc(Cl)ccc34)(CCO[C@H]3O[C@@H]4O[C@]5(C)CC[C@H]6[C@H](C)CC[C@@H]([C@H]3C)[C@@]46OO5)CC2)O[C@@H]2O[C@]3(C)CC[C@H]4[C@H](C)CC[C@@H]1[C@@]24OO3`, for which the Activity in series [22] and in series [23] was <1% each time.

Turning to `C=C(c1ccc(-c2cccc3ccccc23)cc1)C1COC2(CCCC2)OO1` (stereo not drawn), the “Ratio IC50” value in series [24] is on record as >9. This compound also came in with a CC50 in series [25] of 3300 nM. This compound also gave an IC50 in series [26] of 59 nM.

In series [27], `COC1(c2ccc(S(C)(=O)=O)cc2)CCC2(CCCCC2)OO1` (stereo not drawn) yielded an IC50 of 31 nM.

As for `C[C@H]1[C@@H](OCCNCCNc2ccnc3cc(Cl)ccc23)O[C@@H]2O[C@]3(C)CC[C@H]4[C@H](C)CC[C@@H]1[C@@]24OO3`, the IC50 in series [10] amounted to 20.5 nM. For the same compound, the ED50 in [6] stood at 1.4 mg/kg; in series [7] it was 16 mg/kg.

Turning to `CC(C)CCC[C@H](C)C1CC[C@H]2[C@@H]3CC=C4C[C@@H](OC(=O)CCCCCN5CCN([C@H]6O[C@@H]7O[C@]8(C)CC[C@H]9[C@H](C)CC[C@@H]([C@H]6C)[C@@]79OO8)CC5)CC[C@]4(C)[C@H]3CC[C@]12C` (stereo partly drawn), the IC50 in series [20] was determined as 70 nM; in series [28], 52 nM; in series [29], 78 nM. Moreover, in series [30], the selectivity ratio was 1820.

Turning to `CCOP(=O)(CCCN(O)C(=O)CCC(=O)N(CCCCNC(=O)CCO[C@H]1O[C@@H]2O[C@]3(C)CC[C@H]4[C@H](C)CC[C@@H]([C@H]1C)[C@@]24OO3)CCCCNC(=O)CC[C@@H]1O[C@@H]2O[C@@]3(C)CC[C@@H]4[C@@H](C)CC[C@@H]([C@@H]1C)[C@]24OO3)OCC`, in [31], the Ratio IC50 stood at 34. The compound further displayed an IC50 in [32] of 0.65 nM.

In the case of `Cn1nnc(NCC2CC[C@]3(CC2)OO[C@]2(O3)C3CC4CC(C3)CC2C4)n1` (stereo partly drawn), the IC50 in series [8] amounted to 3.4 nM; in [10], 2.9 nM; in [12], 2.1 nM; in series [19], 4.8 nM.

`O=C(CC1CCC2(CC1)OOC1(OO2)C2CC3CC(C2)CC1C3)N1CCOCC1` (stereo not drawn) came in with an Activity in [33] of 100%. Besides, the ED90 in series [34] came out at 3.88 mg/kg.

A word on the ED50: it is the dose at which the effect has come halfway, by size or by number of responders. One may read the CC50 as the concentration at which the toxic effect on the cells reaches its halfway point.
